Experimental data from the NIST ThermoML archive (doi:10.1016/j.fluid.2016.01.001).

Details: Capillary rise

COC [dimethyl ether]
Details | surface tension liquid-gas [mN/m]
214 K | 24.45
220 K | 23.51
225 K | 22.69
230 K | 21.87
235 K | 21.15
240 K | 20.43
245 K | 19.7
250 K | 18.92
255 K | 18.15
260 K | 17.39
265 K | 16.62
270 K | 15.93
275 K | 15.19
280 K | 14.47
285 K | 13.73
290 K | 13.02
295 K | 12.28
300 K | 11.57
305 K | 10.85
315 K | 9.497
320 K | 8.813
325 K | 8.137
330 K | 7.476
335 K | 6.814
340 K | 6.164
345 K | 5.528
350 K | 4.899
355 K | 4.307
360 K | 3.707
365 K | 3.142
370 K | 2.575
375 K | 2.042
380 K | 1.516
385 K | 1.054
390 K | 0.614

CCCC [butane]
Details | surface tension liquid-gas [mN/m]
278.15 K | 14.57
283.15 K | 13.96
288.15 K | 13.37
293.15 K | 12.79
298.15 K | 12.17
303.15 K | 11.53
308.15 K | 10.94
313.15 K | 10.35
318.15 K | 9.851
323.15 K | 9.286
328.15 K | 8.705
333.15 K | 8.14
338.15 K | 7.593
343.15 K | 7.043
348.15 K | 6.516
353.15 K | 5.991
358.15 K | 5.479
363.15 K | 4.981
368.15 K | 4.483
373.15 K | 4.003
378.15 K | 3.515
383.15 K | 3.049
388.15 K | 2.578
393.15 K | 2.091
398.15 K | 1.679
403.15 K | 1.29
408.15 K | 0.923
413.15 K | 0.583
417.15 K | 0.341
419.75 K | 0.186
420.35 K | 0.157
420.85 K | 0.129
421.08 K | 0.118
421.48 K | 0.1
